Counter-ions that a name gives are not always drawn.
target: T1, h-5-HT6 receptor (Homo sapiens, UniProt P50406); assay: 5-HT6 receptor binding assay (displacement of [3H]-LSD); details: membranes of HEK293 cells stably expressing h-5-HT6 receptor, [3H]-LSD displacement
T1 construct: expressed in transfected cells
Protocol: Displacement of Radioligands Binding to the Following Cloned Human Receptors
Cells from stable clonal cell lines expressing the corresponding receptor (5-HT6, α1-adrenergic, dopamine D2 or histamine H1 receptors) were washed with PBS (w/o Ca^++, Mg^++) and harvested in PBS with 0.02% EDTA. The cells were collected by centrifugation at 500 g for 10 min. at 4° C., washed with PBS and centrifuged (500 g, 10 min. 4° C.). The pellets were stored at −80° C. until use. For membrane preparation, the thawed cell pellet was resuspended in ice-cold sucrose buffer (0.25 M sucrose, 10 mM Hepes (pH 7.4), 1 mM Phenylmethylsulfonyl fluoride (PMSF) in DMSO, 5 μg/ml Pepstatin-A, 3 mM EDTA, 0.025% Bacitracin) and homogenized with a Branson Sonifier W-250 (Settings: Timer 4; Output Control 3; Duty Cycle constant; 2 to 3 cycles). Cell disruption was checked with the aid of a microscope. Remaining unbroken cells were pelleted at 1.000 g for 10 min. at 4° C. The sucrose buffer supernatant was then centrifuged at 60.000 g for 1 h at 4° C. (Beckman Ultrazentrifuge XL 80). The pellet was resuspended in 30 ml ice-cold Tris buffer (20 mM TRIS (pH 7.4), 5 μg/ml Pepstatin A, 0.1 mM PMSF, 3 mM EDTA) by pipetting through a 10 ml serological pipet and centrifuged for 1 h at 4° C. at 60.000 g. A final resuspension was performed in a small volume of ice-cold Tris buffer (see above) by pressing through a serological pipet followed by ultrasonic treatment with a Branson Sonifier W-250 (Settings: Timer 1; Output Control 3; Duty Cycle constant; 1 cycle). Protein concentration was determined (BCA-Kit; Pierce) and aliquots stored at −80° C. or in liquid nitrogen for long-term storage.
All receptor binding experiments were carried out in the corresponding assay buffer in a total volume of 200 μl in the presence of various concentrations of test compound (10^−5 M to 10^−9 M, tenfold serial dilution, duplicate determinations). The assays were terminated by filtration on polyethylenimine (PEI 0.1% or 0.3%) presoaked Packard Unifilter Plates (GF/C or GF/B) with a Tomtec MachIII U 96well-plate harvester. After the plates had been dried for 2 h at 55° C. in a drying chamber scintillation cocktail (BetaPlate Scint; PerkinElmer) was added. Radioactivity was measured in a Microbeta Trilux two hours after the addition of the scintillation mixture. Data derived from liquid scintillation counting were analysed by iterative non-linear regression analysis with the use of the Statistical Analysis System (SAS): a program similar to “LIGAND” as described by Munson and Rodbard (Analytical Biochemistry 107, 220-239 (1980).
HEK293 cells stably expressing the h-5-HT6 receptor (NCBI Reference Sequence XM 001435) were cultured in RPMI1640 medium supplemented with 25 mM HEPES, 10% fetal calf serum and 1-2 mM glutamine. The membrane preparation was performed as described in section 1. […] Non-specific binding was defined with 1 μM methiothepin. The binding reaction was carried out for 3.5 h at room temperature. During the incubation, the plates were shaken on a plate shaker at 100 rpm and terminated by filtration on Packard Unifilter GF/C (0.1% PEI) plates, followed by 2 wash cycles with ice-cold 50 mM Tris-HCl, 5 mM CaCl2.
Data derived from liquid scintillation counting were analyzed by iterative non-linear regression analysis with the use of the Statistical Analysis System (SAS): a program similar to “LIGAND” as described by Munson and Rodbard (Anal. Biochem. 1980, 107, 220-239). Fitting was performed according to formulae described by Feldman (Anal. Biochem. 1972, 48, 317-338). IC50, nH and Ki values were expressed as geometrical mean.

T1 sequence (P50406 whole entry): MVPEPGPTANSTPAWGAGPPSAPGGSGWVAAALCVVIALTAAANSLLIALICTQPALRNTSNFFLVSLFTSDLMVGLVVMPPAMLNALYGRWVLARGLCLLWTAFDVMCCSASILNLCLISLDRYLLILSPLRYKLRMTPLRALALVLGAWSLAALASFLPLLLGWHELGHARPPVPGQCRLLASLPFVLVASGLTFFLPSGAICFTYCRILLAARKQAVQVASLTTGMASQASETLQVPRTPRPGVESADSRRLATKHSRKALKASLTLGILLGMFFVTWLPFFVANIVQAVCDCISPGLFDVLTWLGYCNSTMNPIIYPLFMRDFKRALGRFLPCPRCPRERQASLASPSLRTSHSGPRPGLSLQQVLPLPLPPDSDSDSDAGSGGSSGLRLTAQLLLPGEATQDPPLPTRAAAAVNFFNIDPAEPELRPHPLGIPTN

Row | SMILES | Ki [nM]
1 | O=C(OCc1ccccc1)N1CC2CN(c3cccc4cc(S(=O)(=O)c5ccccc5)cnc34)C2C1 (stereo not drawn) [Example 2, Benzyl 6-(3-(phenylsulfonyl)quinolin-8-yl)-3,6-diazabicyclo[3.2.0]heptane-3-carboxylate] | < 250
2 | CC(C)(C)OC(=O)N1CCC2CN(c3cccc4cc(S(=O)(=O)c5cccc(OC(F)(F)F)c5)cnc34)CC2C1 (stereo not drawn) [Example 19, tert-butyl 2-(3-(3-(trifluoromethoxy)phenylsulfonyl)quinolin-8-yl)hexahydro-1H-pyrrolo[3,4-c]pyridine-5(6H)-carboxylate] | < 50
3 | CC(C)(C)OC(=O)N1CCC2CN(c3cccc4cc(S(=O)(=O)c5ccccc5)cnc34)CC2C1 (stereo not drawn) [Example 3, tert-butyl 2-(3-(phenylsulfonyl)quinolin-8-yl)hexahydro-1H-pyrrolo[3,4-c]pyridine-5(6H)-carboxylate] | < 250
4 | O=S(=O)(c1cccc(C(F)(F)F)c1)c1cnc2c(N3CC4CCNCC4C3)cccc2c1 (stereo not drawn) [Example 44, 8-(1H-pyrrolo[3,4-c]pyridin-2(3H,3aH,4H,5H,6H,7H,7aH)-yl)-3-(3-(trifluoromethyl)phenylsulfonyl)quinoline] | < 10
5 | O=S(=O)(c1ccccc1)c1cnc2c(N3CCC4NC5CCCCC5C4C3)cccc2c1 (stereo not drawn) [Example 42, 2-(3-(phenylsulfonyl)quinolin-8-yl)dodecahydro-1H-pyrido[4,3-b]indole] | < 250
6 | O=S(=O)(c1cccc(F)c1)c1cnc2c(N3C[C@@H]4CN[C@@H]4C3)cccc2c1 [Example 32, (1S,5S)-3-(3-(3-fluorophenylsulfonyl)quinolin-8-yl)-3-aza-6-azoniabicyclo[3.2.0]heptane hydrochloride] | < 10
7 | CN1CCC2CN(c3cccc4cc(S(=O)(=O)c5ccccc5)cnc34)CC2C1 (stereo not drawn) [Example 41, 8-(5-methyl-1H-pyrrolo[3,4-c]pyridin-2(3H,3aH,4H,5H,6H,7H,7aH)-yl)-3] | < 50
8 | CC(C)(C)OC(=O)N1CC2CN(c3cccc4cc(S(=O)(=O)c5cccc(OC(F)(F)F)c5)cnc34)CC2C1 (stereo not drawn) [Example 15, tert-butyl 5-(3-(3-(trifluoromethoxy)phenylsulfonyl)quinolin-8-yl)hexahydropyrrolo[3,4-c]pyrrole-2 (1H)-carboxylate] | < 50
9 | O=S(=O)(c1ccccc1)c1cnc2c(N3CC4CCNC4C3)cccc2c1 (stereo not drawn) [Example 1, 8-(Hexahydropyrrolo[3,4-b]pyrrol-5(1H)-yl)-3-(phenylsulfonyl)quinoline hydrochloride] | < 10
10 | O=S(=O)(c1ccccc1)c1cnc2c(N3CCCC4NCCCC43)cccc2c1 (stereo not drawn) [Example 10, 1-(3-(phenylsulfonyl)quinolin-8-yl)decahydro-1,5-naphthyridine] | < 250
11 | O=S(=O)(c1cccc(F)c1)c1cnc2c(N3CC4CCNC4C3)cccc2c1 (stereo not drawn) [Example 29, 3-(3-Fluoro-benzenesulfonyl)-8-(hexahydro-pyrrolo[3,4-b]pyrrol-5-yl)-quinoline hydrochloride] | < 10
12 | O=S(=O)(c1ccccc1)c1cnc2c(N3CC4CN(Cc5ccccc5)CC4C3)cccc2c1 (stereo not drawn) [Example 40, 8-(5-benzylhexahydropyrrolo[3,4-c]pyrrol-2(1H)-yl)-3-(phenylsulfonyl)-quinoline] | < 10

Other lines, results leading:

Row | Ki [nM] | SMILES
13 | < 10 | O=S(=O)(c1cccc(OC(F)(F)F)c1)c1cnc2c(N3CC4CNCC4C3)cccc2c1 (stereo not drawn) [Example 16, 8-(hexahydropyrrolo[3,4-c]pyrrol-2(1H)-yl)-3-(3-(trifluoromethoxy)-phenylsulfonyl)quinoline]
14 | < 10 | O=S(=O)(c1cccc(F)c1)c1cnc2c(N3C[C@H]4CNC[C@H]4C3)cccc2c1 [Example 30, 3-(3-Fluoro-benzenesulfonyl)-8-(3aR,6aS)-hexahydro-pyrrolo[3,4-c]pyrrol-2-yl-quinoline hydrochloride]
15 | < 10 | O=S(=O)(c1cccc(N2CC3CNCC3C2)c1)c1cnc2c(N3CC4CNCC4C3)cccc2c1 (stereo not drawn) [Example 18, 8-(hexahydropyrrolo[3,4-c]pyrrol-2(1H)-yl)-3-(3-(hexahydropyrrolo[3,4-c]pyrrol-2(1H)-yl)phenylsulfonyl)quinoline]
16 | < 10 | O=S(=O)(c1ccccc1)c1cnc2c(N3CC4CNCC4C3)cccc2c1 (stereo not drawn) [Example 43, 8-(hexahydropyrrolo[3,4-c]pyrrol-2(1H)-yl)-3-(phenylsulfonyl)quinoline]
17 | < 10 | O=S(=O)(c1ccc(F)cc1)c1cnc2c(N3CC4CNCC4C3)cccc2c1 (stereo not drawn) [Example 14, 3-(4-fluorophenylsulfonyl)-8-(hexahydropyrrolo[3,4-c]pyrrol-2(1H)-yl)quinoline]
18 | < 10 | O=S(=O)(c1cccc(F)c1)c1cnc2c(N3CC[C@H]4CNC[C@H]43)cccc2c1 [Example 26, 3-(3-Fluoro-benzenesulfonyl)-8-(3aS,6aS)-hexahydropyrrolo[3,4-b]pyrrol-1-yl-quinoline hydrochloride]
19 | < 10 | O=S(=O)(c1cccc(F)c1)c1cnc2c(N3CC4CCCNC4C3)cccc2c1 (stereo not drawn) [Example 31, 6-(3-(3-fluorophenylsulfonyl)quinolin-8-yl)octahydro-1H-pyrrolo[3,4-b]pyridin-1-ium chloride]
20 | < 10 | O=S(=O)(c1cccc(F)c1)c1cnc2c(N3C[C@H]4CN[C@H]4C3)cccc2c1 [Example 28, 8-(1R,5R)-3,6-Diaza-bicyclo[3.2.0]hept-3-yl-3-(3-fluoro-benzenesulfonyl)-quinoline hydrochloride]
21 | < 10 | O=S(=O)(c1cccc(C(F)(F)F)c1)c1cnc2c(N3C[C@H]4CNC[C@H]4C3)cccc2c1 [Example 24, 8-((3aR,6aS)-hexahydropyrrolo[3,4-c]pyrrol-2(1H)-yl)-3-(3-(trifluoromethyl)phenylsulfonyl)quinoline]
22 | < 10 | O=S(=O)(c1ccc(F)cc1)c1cnc2c(N3CC4CCNC4C3)cccc2c1 (stereo not drawn) [Example 39, 3-(4-fluorophenylsulfonyl)-8-(hexahydropyrrolo[3,4-b]pyrrol-5(1H)-yl)quinoline]
23 | < 10 | O=S(=O)(c1cccc(C(F)(F)F)c1)c1cnc2c(N3CC4CCNC4C3)cccc2c1 (stereo not drawn) [Example 22, 8-(hexahydropyrrolo[3,4-b]pyrrol-5(1H)-yl)-3-(3-(trifluoromethyl)-phenylsulfonyl)quinoline]
24 | < 10 | O=S(=O)(c1ccccc1)c1cnc2c(N3CC[C@H]4CNC[C@H]43)cccc2c1 [Example 12, 8-((3aS,6aS)-hexahydropyrrolo[3,4-b]pyrrol-1(2H)-yl)-3-(phenylsulfonyl)-quinoline]
25 | < 10 | O=S(=O)(c1ccccc1)c1cnc2c(N3CC4CCNCC4C3)cccc2c1 (stereo not drawn) [Example 4, 3-(Phenylsulfonyl)-8-(1H-pyrrolo[3,4-c]pyridin-2(3H,3aH,4H,5H,6H,-7H,7aH)-yl)quinoline]
26 | < 10 | O=S(=O)(c1ccc(F)cc1)c1cnc2c(N3CC4CCNCC4C3)cccc2c1 (stereo not drawn) [Example 13, 3-(4-fluorophenylsulfonyl)-8-(1H-pyrrolo[3,4-c]pyridin-2(3H,3aH,4H,5H,6H,7H,7aH)-yl)quinoline]
27 | < 10 | O=S(=O)(c1cccc(OC(F)(F)F)c1)c1cnc2c(N3CC4CCNCC4C3)cccc2c1 (stereo not drawn) [Example 20, 8-(1H-pyrrolo[3,4-c]pyridin-2(3H,3aH,4H,5H,6H,7H,7aH)-yl)-3-(3-(trifluoromethoxy)phenylsulfonyl)quinoline]

Source: US8440694B2, “Quinoline compounds suitable for treating disorders that respond to modulation of the serotonin-5-HT6 receptor” (Abbott GmbH & Co. KG, priority 2007, dated 2013)
